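Five compound concentrations were applied to cells in 96-well plates for 48 hours; endpoints were derived by simple linear interpolation of the resulting dose-response curve. The concentration for 50% growth inhibition is given as GI50. Definition used: TGI = concentration required for complete inhibition of growth.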
What was measured:
Assay in all cases: growth of human tumour cells (NCI), 48 h
OVCAR-5 ovarian = tested on: OVCAR-5 ovarian
M14 melanoma = tested on: M14 melanoma
UO-31 renal = tested on: UO-31 renal
HS 578T breast = tested on: HS 578T breast
HOP-62 NSCLC = tested on: HOP-62 NSCLC
T-47D breast = tested on: T-47D breast
MALME-3M melanoma = tested on: MALME-3M melanoma
NCI-H460 lung = tested on: NCI-H460 lung
EKVX NSCLC = tested on: EKVX NSCLC
SF-295 CNS = tested on: SF-295 CNS

COc1cc2cc(Oc3ccc(NC(=O)Nc4ccc(Cl)c(Cl)c4)cc3)c(C)nc2cc1OC
GI50 (OVCAR-5 ovarian): 10.1 µM | TGI (OVCAR-5 ovarian): 34.3 µM | GI50 (M14 melanoma): 2.56 µM | TGI (M14 melanoma): 10.5 µM | GI50 (UO-31 renal): 3.44 µM | TGI (UO-31 renal): 12.6 µM | GI50 (HS 578T breast): 3.54 µM | TGI (HS 578T breast): 9.68 µM | GI50 (HOP-62 NSCLC): 3.55 µM | TGI (HOP-62 NSCLC): 11.9 µM | GI50 (T-47D breast): 2.7 µM | TGI (T-47D breast): 10.1 µM | GI50 (MALME-3M melanoma): 3.02 µM | TGI (MALME-3M melanoma): 7.72 µM | GI50 (NCI-H460 lung): 2.46 µM | TGI (NCI-H460 lung): 10.1 µM | GI50 (EKVX NSCLC): 2.36 µM | TGI (EKVX NSCLC): 9.51 µM | GI50 (SF-295 CNS): 1.96 µM | TGI (SF-295 CNS): 6.08 µM

C#CCOc1ccc2ncnc(Nc3ccc(NC(=O)C=C)cc3)c2c1
GI50 (OVCAR-5 ovarian): > 100 µM | TGI (OVCAR-5 ovarian): > 100 µM | GI50 (M14 melanoma): 34.4 µM | TGI (M14 melanoma): > 100 µM | GI50 (UO-31 renal): 11.6 µM | TGI (UO-31 renal): 44.4 µM | GI50 (HS 578T breast): 62 µM | TGI (HS 578T breast): > 100 µM | GI50 (HOP-62 NSCLC): > 100 µM | TGI (HOP-62 NSCLC): > 100 µM | GI50 (T-47D breast): 3.53 µM | TGI (T-47D breast): > 100 µM | GI50 (MALME-3M melanoma): 6.23 µM | TGI (MALME-3M melanoma): 30.2 µM | GI50 (NCI-H460 lung): > 100 µM | TGI (NCI-H460 lung): > 100 µM | GI50 (EKVX NSCLC): > 100 µM | TGI (EKVX NSCLC): > 100 µM | GI50 (SF-295 CNS): > 100 µM | TGI (SF-295 CNS): > 100 µM

CSC(=Nc1ccccc1)/N=C(\SCc1ccccc1)N(C)C
TGI (OVCAR-5 ovarian): 2.84 µM | TGI (M14 melanoma): 2.12 µM | TGI (UO-31 renal): 2.82 µM | TGI (HS 578T breast): 4.17 µM | TGI (HOP-62 NSCLC): 3.31 µM | TGI (T-47D breast): 1.97 µM | TGI (MALME-3M melanoma): 2.65 µM | TGI (NCI-H460 lung): 0.691 µM | TGI (EKVX NSCLC): 3.33 µM | TGI (SF-295 CNS): 2.89 µM

CC[C@H](C)[C@H](NC(=O)CN(C)C)C(=O)N(C)[C@H](C[C@@H](OC(C)=O)c1nc(C(=O)NC23CC(C(=O)OC)(C2)C3)cs1)C(C)C
GI50 (OVCAR-5 ovarian): > 6.63 µM | TGI (OVCAR-5 ovarian): > 25 µM | GI50 (M14 melanoma): 0.0995 µM | TGI (M14 melanoma): > 5.78 µM | GI50 (UO-31 renal): 12.6 µM | TGI (UO-31 renal): > 25 µM | GI50 (HS 578T breast): 0.125 µM | TGI (HS 578T breast): > 25 µM | GI50 (HOP-62 NSCLC): 2.97 µM | TGI (HOP-62 NSCLC): > 25 µM | GI50 (T-47D breast): > 25 µM | TGI (T-47D breast): > 25 µM | GI50 (MALME-3M melanoma): > 6.28 µM | TGI (MALME-3M melanoma): > 25 µM | GI50 (NCI-H460 lung): 0.408 µM | TGI (NCI-H460 lung): > 25 µM | GI50 (EKVX NSCLC): 1.53 µM | TGI (EKVX NSCLC): > 25 µM | GI50 (SF-295 CNS): 0.647 µM | TGI (SF-295 CNS): > 25 µM

COc1ccc(N(C)c2nc(N)nc3sc4c(c23)CCCC4)cc1
GI50 (OVCAR-5 ovarian): < 0.0125 µM | TGI (OVCAR-5 ovarian): 19.5 µM | GI50 (M14 melanoma): < 0.01 µM | TGI (M14 melanoma): 11.4 µM | GI50 (UO-31 renal): < 0.01 µM | TGI (UO-31 renal): 14.2 µM | GI50 (HS 578T breast): < 0.01 µM | TGI (HS 578T breast): 10.3 µM | GI50 (HOP-62 NSCLC): 0.275 µM | TGI (HOP-62 NSCLC): 18.8 µM | GI50 (T-47D breast): < 0.01 µM | TGI (T-47D breast): 30.8 µM | GI50 (MALME-3M melanoma): < 0.0125 µM | TGI (MALME-3M melanoma): 18.9 µM | GI50 (NCI-H460 lung): < 0.01 µM | TGI (NCI-H460 lung): 4.19 µM | GI50 (EKVX NSCLC): < 0.01 µM | TGI (EKVX NSCLC): 18.7 µM | GI50 (SF-295 CNS): < 0.01 µM | TGI (SF-295 CNS): 13.1 µM

Cc1cc(Cl)nc(N(CCCNc2ccnc3cc(Cl)ccc23)Cc2ccco2)n1
GI50 (OVCAR-5 ovarian): 3.12 µM | TGI (OVCAR-5 ovarian): 22.6 µM | GI50 (M14 melanoma): 1.88 µM | TGI (M14 melanoma): 4.08 µM | GI50 (UO-31 renal): 1.08 µM | TGI (UO-31 renal): 5.93 µM | GI50 (HS 578T breast): 2.13 µM | TGI (HS 578T breast): 8.1 µM | GI50 (HOP-62 NSCLC): 1.59 µM | TGI (HOP-62 NSCLC): 5.65 µM | GI50 (T-47D breast): 1.73 µM | TGI (T-47D breast): 6.43 µM | GI50 (MALME-3M melanoma): 2.21 µM | TGI (MALME-3M melanoma): 5.58 µM | GI50 (NCI-H460 lung): 2.04 µM | TGI (NCI-H460 lung): 6.2 µM | GI50 (EKVX NSCLC): 2.18 µM | TGI (EKVX NSCLC): 7.73 µM | GI50 (SF-295 CNS): 1.28 µM | TGI (SF-295 CNS): 2.81 µM
